What was measured:
[1] = tested on: Spodoptera littoralis (Egyptian Cotton Leafworm); test: Example B1: activity against Spodoptera littoralis, larvicide, feeding/residual contact, preventive (cotton leaf discs); type: in vivo; conditions: foliar, 72 h, 3 days after treatment, L1 larvae
[2] = tested on: Heliothis virescens (Tobacco Budworm); test: Example B2: activity against Heliothis virescens, ovo-larvicide, feeding/contact, curative; type: in vivo; conditions: 96 h, 4 days incubation, eggs 0-24 h old
Protocol: Activity Against Heliothis virescens (Tobacco Budworm)
(Ovo-Larvicide, Feeding/Contact Activity, Curative)
Eggs (0-24 h old) are placed in 24-well microtiter plate on artificial diet and treated with test solutions by pipetting. After an incubation period of 4 days, samples are checked for egg mortality, larval mortality, and growth regulation.

[3] = tested on: Plutella xylostella (Diamond Back Moth); test: Example B3: Plutella xylostella, larvicide, feeding/residual contact, preventive (artificial diet MTP); type: in vivo; conditions: 120 h, 5 days incubation, L2 larvae
How it was run: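 Artificial diet in multiwell plates treated with test solution, dried, then infested with 10–15 L2 larvae per well. After 5 days, larval mortality, antifeedant effect and growth regulation were scored.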

[4] = tested on: Diabrotica balteata (Corn Root Worm); test: Example B4: Diabrotica balteata, larvicide, feeding/residual contact, preventive; type: in vivo; conditions: 120 h, 5 days incubation, L2 larvae
How it was run: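 Artificial diet treated with test solution, dried, then infested with 6-10 L2 larvae per well. Larval mortality, antifeedant effect and growth regulation checked after 5 days of incubation.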

[5] = tested on: Cydia pomonella (Codling Moth); test: Example B8: activity against Cydia pomonella (paraffin-coated diet cubes); type: in vivo; conditions: 336 h, 14 days incubation at 26° C.
Protocol: Activity Against Cydia pomonella (Codling Moth)
Standard Cydia diet cubes (1.5 cm width) are pierced with a tooth-pick and are immersed in liquid paraffin (ca. 80° C.). After the paraffin coat has hardened, an aqueous emulsion containing 400 ppm of active ingredient is applied using a De Vilbis sprayer (25 ml, 1 bar). After the spray coating has dried, the cubes are put into plastic containers which are then populated with two freshly hatched Cydia pomonella (1st instar). The containers are then closed with a plastic cap. After 14 days incubation at 26° C. and 40-60% relative humidity, the survival rate of the caterpillars as well as their growth regulation is determined. In this test, compounds listed in Table P above show good activity. In particular compounds P.10, P.11, P.12, P.18, P.19, P.20, P.29, P.30, P.31, P.32, P.33, P.34, P.35, P.37, P.38, P.39, P.42, and P.43 show an activity of over 80% at a concentration of 400 ppm.

[6] = tested on: Frankliniella occidentalis (Western Flower Thrips); test: Example B9: activity against Frankliniella occidentalis (bean leaf discs or bean plants); type: in vivo; conditions: foliar, 6 days (leaf discs) or 14 days (plants) after infestation
Protocol: Activity Against Frankliniella occidentalis (Western Flower Thrips)
Bean leaf discs on agar in petri dishes or bean plants in a spray chamber are treated with diluted test solutions. After drying leaf discs are cut and placed in plastic cups on the surface of an agar layer and infested with mixed population. 6 days (leaf discs) or 14 days (plants) after the infestation, samples are checked for reduction of treated population and compared to the non treated population.

[7] = tested on: Myzus persicae (Green Peach Aphid); test: Example B5: activity against Myzus persicae, mixed population, feeding/residual contact, preventive (sunflower leaf discs); conditions: foliar, 144 h, read-out: activity
[8] = tested on: Thrips tabaci (Onion Thrips); test: Example B7: activity against Thrips tabaci, mixed population, feeding/residual contact, preventive; conditions: 144 h, read-out: activity
[9] = tested on: Myzus persicae (Green Peach Aphid); test: Example B6: activity against Myzus persicae, mixed population, systemic/feeding, curative (pea seedling roots); conditions: 144 h, read-out: activity
[10] = tested on: Aphis craccivora (Pea Aphid); test: Example B11: activity against Aphis craccivora, mixed population, systemic/feeding; type: in vivo; conditions: 144 h, 6 days, roots in test solution (systemic)
Text: Activity Against Aphis craccivora (Pea Aphid)
(§1) (Mixed Population, Systemic/Feeding)
(§2) 6 days later, samples are checked for mortality.

[11] = tested on: Aphis aossypii (Cotton Aphid); test: Example B13: activity against cotton aphid, mixed population, systemic/feeding; type: in vivo; conditions: 144 h, 6 days, roots in test solution (systemic)
Text: Activity Against Aphis aossypii (Cotton Aphid)
as §1, §2

Measured: pest or weed control at 400 ppm

O=C(NCC1CC1)c1c(NC(=O)c2cc(C(F)(F)F)nn2-c2ncccc2Cl)c(Cl)cc2cn[nH]c12 [P.11]
not listed: [8] | [9] | [10] | [11]
> 80%: all other assays above

O=C(NC1(C2CC2)CC1)c1c(NC(=O)c2cc(C(F)(F)F)nn2-c2ncccc2Cl)c(Cl)cc2cn[nH]c12 [P.12]
not listed: [10] | [11]
> 80%: all other assays above

O=C(NC1(C2CC2)CC1)c1c(NC(=O)c2cc(C(F)(F)F)nn2-c2ncccc2Cl)c(Br)cc2cn[nH]c12 [P.18]
not listed: [9] | [10] | [11]
> 80%: all other assays above

O=C(NCC1CC1)c1c(NC(=O)c2cc(C(F)(F)F)nn2-c2ncccc2Cl)c(Br)cc2cn[nH]c12 [P.19]
not listed: [8] | [10] | [11]
> 80%: all other assays above

Cc1ccc2c(C(=O)NC(C)C)c(NC(=O)c3cc(C(F)(F)F)nn3-c3ncccc3Cl)c(C)cc2n1 [P.20]
> 80%: [1] | [2] | [3] | [5]

CNC(=O)c1c(NC(=O)c2cc(C(F)(F)F)nn2-c2ncccc2Cl)c(Cl)cc2cn[nH]c12 [P.29]
not listed: [6] | [10] | [11]
> 80%: all other assays above

O=C(NC1CC12CC2)c1c(NC(=O)c2cc(C(F)(F)F)nn2-c2ncccc2Cl)c(Cl)cc2cn[nH]c12 (centres unmarked) [P.31]
> 80%: [1] | [2] | [3] | [4] | [5] | [7]

CC1(NC(=O)c2c(NC(=O)c3cc(C(F)(F)F)nn3-c3ncccc3Cl)c(Cl)cc3cn[nH]c23)CSC1 [P.32]
not listed: [4] | [6] | [10] | [11]
> 80%: all other assays above

CSCC(C)(C)NC(=O)c1c(NC(=O)c2cc(C(F)(F)F)nn2-c2ncccc2Cl)c(Br)cc2cn[nH]c12 [P.33]
not listed: [11]
> 80%: all other assays above

CC(C)(CS(C)(=O)=O)NC(=O)c1c(NC(=O)c2cc(C(F)(F)F)nn2-c2ncccc2Cl)c(Br)cc2cn[nH]c12 [P.34]
not listed: [10] | [11]
> 80%: all other assays above

COc1cc(C(=O)Nc2c(Br)cc3cn[nH]c3c2C(=O)NC(C)C)n(-c2ncccc2Cl)n1 [P.35]
not listed: [10] | [11]
> 80%: all other assays above

CCNC(=O)c1c(NC(=O)c2cc(Cl)nn2-c2ncccc2Cl)c(Br)cc2cn[nH]c12 [P.37]
not listed: [6] | [10] | [11]
> 80%: all other assays above

O=C(NC1(C2CC2)CC1)c1c(NC(=O)c2cc(C(F)F)nn2-c2ncccc2Cl)c(Cl)cc2cn[nH]c12 [P.38]
not listed: [8] | [9] | [10] | [11]
> 80%: all other assays above

Cc1cc2cn[nH]c2c(C(=O)NC(C)C)c1NC(=O)c1cc(OCC(F)(F)F)nn1-c1ncccc1Cl [P.52, 6-{[2-(3-chloro-pyridin-2-yl)-5-(2,2,2-trifluoro-ethoxy)-2H-pyrazole-3-carbonyl]-amino}-5-methyl-1H-indazole-7-carboxylic acid isopropylamide]
not listed: [5] | [11]
> 80%: all other assays above

Cc1cc2cn[nH]c2c(C(=O)NC(C)C)c1NC(=O)c1cc(C(F)F)nn1-c1ncccc1Cl [P.56, 6-{[2-(3-chloro-pyridin-2-yl)-5-difluoromethyl-2H-pyrazole-3-carbonyl]-amino}-5-methyl-1H-indazole-7-carboxylic acid isopropylamide]
not listed: [4] | [5]
> 80%: all other assays above

COc1cc(C(=O)Nc2c(Cl)cc3cn[nH]c3c2C(=O)NC(C)(C)CS(C)(=O)=O)n(-c2ncccc2Cl)n1 [P.60]
not listed: [4] | [5] | [8]
> 80%: all other assays above

COc1cc(C(=O)Nc2c(Cl)cc3cn[nH]c3c2C(=O)NC2(C)CS(=O)(=O)C2)n(-c2ncccc2Cl)n1 [P.61, 5-chloro-6-{[2-(3-chloro-pyridin-2-yl)-5-methoxy-2H-pyrazole-3-carbonyl]-amino}-1H-indazole-7-carboxylic acid (3-methyl-1,1-dioxo-1lambda*6*-thietan-3-yl)-amide]
not listed: [4] | [5] | [8]
> 80%: all other assays above
